The values below come from patent US9420797B2, “Method for preparing biocidal aqueous compositions” (BROMINE COMPOUNDS LTD., priority 2012, dated 2016).

The test system of assay [1] is Inoculum of bacteria (Activated sludge taken from Domestic Waste Water treatment Plant—Haifa). Nature of the assay: Microbial efficacy (% kill) under different TOC loading, activated sludge bacteria, pour plate count on R2A agar. The settings on record: contact time 30 min, pH 7. It is filed as cell-based. The source says: Inoculum of bacteria (Activated sludge taken from Domestic Waste Water treatment Plant-Haifa). R2A agar for general counting. Tryptone, in amounts of either 0.025, or 0.119 or 0.239 g solid tryptone, was weighed and dissolved in 1 liter of buffer. Neutralization solution (NaHSO4). Chlorourea solution, prepared from aq. urea hydrochloride (consisting of 5.8% HCl and 38.2% urea, Wt %) and a 12.9% aq NaOCl as Cl2, Wt %); Urea, HCl:NaOCl 4:1:1 molar ratio. The biocidal efficacy of the antifouling composition at different organic loads of 0, 10, 30 and 50 ppm TOC, was examined under different biocidal concentrations (2.5, 5 and 10 ppm) at pH 7. 1) 1 ml of inoculum was added to tryptone solutions (placed in 3 erlenmeyer flasks, 100 ml each, with different concentrations of TOC-0, 10, 30 and 50 ppm). 2) 1 ml of each sample was inoculated on […] agar (pour plate method). The result stands for the bacteria count at zero time. 3) For each of the tryptone concentrations (0, 10, 30, 50 ppm TOC) an inoculum of bacteria (1 ml) and the appropriate biocide concentration were added. 4) After 30 and 60 min. of shaking (100 rpm), 1 ml of each sample was transferred to a tube filled with 9 ml of the neutralization solution. An aliquot of 1 ml was taken from this solution and added to another tube containing 9 ml of buffer solution. The solution was mixed under vortex. This operation was repeated 4 more times. 5) 1 ml from the two lowest dilutions was inoculated on a […] agar (by the pour plate method). 6) After the plates were incubated at 25° C. for 5-7 days, the bacteria count was recorded.

The subject of assay [2] is Pseudomonas aeruginosa (ATCC 15442) entrapped in alginate gel beads. The assay can be described thus: Biocidal activity against simulated biofilm (bacteria entrapped in alginate gel beads), surviving CFU. Conditions: contact time 24 hours, count at time 0 1.40E+07.

Take `OCl` [NaOCl, sodium hypochlorite]: the “% Kill” value in assay [1] (TOC 0 ppm, biocide 2.5 ppm as Cl2) amounted to 98.8%; in assay [1] (TOC 0 ppm, biocide 5 ppm as Cl2), 99.6%; in assay [1] (TOC 0 ppm, biocide 10 ppm as Cl2) it was 99.9%; in assay [1] (TOC 10 ppm, biocide 2.5 ppm as Cl2), 37.7%; in assay [1] (TOC 10 ppm, biocide 5 ppm as Cl2) it was 97.8%; in assay [1] (TOC 10 ppm, biocide 10 ppm as Cl2), 99.5%. In addition, the “% Kill” value came out at 11.6% in assay [1] (TOC 30 ppm, biocide 2.5 ppm as Cl2); 78.2% in assay [1] (TOC 30 ppm, biocide 5 ppm as Cl2); 93.6% in assay [1] (TOC 30 ppm, biocide 10 ppm as Cl2); 24.1% in assay [1] (TOC 50 ppm, biocide 2.5 ppm as Cl2); 49.2% in assay [1] (TOC 50 ppm, biocide 5 ppm as Cl2); 91.7% in assay [1] (TOC 50 ppm, biocide 10 ppm as Cl2). The “survival of bacteria (CFU)” value in assay [2] (biocide 0.5 ppm as Cl2) is on record as 3.6E+06 CFU; in assay [2] (biocide 1 ppm as Cl2) it was 2.53E+06 CFU; in assay [2] (biocide 2.5 ppm as Cl2) it was 1.00E+00 CFU; in assay [2] (biocide 5 ppm as Cl2), 1.00E+00 CFU.
